Consider nine substances from paper PMC4537050, “A long pentraxin-3-derived pentapeptide for the therapy of FGF8b-driven steroid hormone-regulated cancers” (Oncotarget, 2015).

Test [1] concerns S115 cells grafted onto the chick embryo CAM. As to the kind of experiment: CAM assay with DHT-treated S115 cell grafts. The format is in vivo. The settings on record: 2.5 × 10^4 cells/embryo; ARPCA 80 or 140 pmoles/embryo, ARPVA 140 pmoles/embryo; day 14. How it is done: (§1) Alginate plugs containing vehicle, FGF8b (4.5 pmoles/embryo), VEGF-A (4.5 pmoles/embryo) or S115 cells (2.5×10^4/embryo) in the absence or presence of ARPCA (80 or 140 pmoles/embryo) or ARPVA (140 pmoles/embryo) were placed on the CAM of fertilized white leghorn chicken eggs at day 11 of incubation. At day 14, newly formed blood microvessels converging toward the implant were counted by two observers in a double-blind fashion at 5x magnification under a stereomicroscope (STEMI-SR, x2/0.12; Zeiss) as described.

Another test has as its system HUVECs. The test can be described thus: HUVEC proliferation in response to FGF8b. Type of test: cell-based, human. The settings on record: 30 ng/ml FGF8b, 48 h, concentrations as high as 300 μM. How it is done: (§2) HUVECs were seeded at 18000 cells/cm^2 in medium containing 2.5% FBS and stimulated with 30 ng/ml FGF8b in the absence or presence of increasing concentrations of ARPCA or ARPVA. S115 cells were seeded at 15000 cells/cm^2 in medium containing 4% hormone-deprived dextran-coated charcoal-stripped heat inactivated FBS, followed by 24 h serum starvation in 1:1 mixture of serum-free Ham's F12 and DMEM. Cells were stimulated for 48 h with 30 ng/ml FGF8b or 10 nM DHT in the presence or absence of different concentrations of ARPCA or ARPVA (as specified in the corresponding figures). Viable cell counts were obtained by the counting function of the MACSQuant® Analyzer (Miltenyi Biotec, Bergisch-Gladbach, Germany, EU).

The target of the next test is T1, FGF8b (Homo sapiens, UniProt P55075).
T1 sequence (P55075 23-215 isoform P55075-3 limits assumed): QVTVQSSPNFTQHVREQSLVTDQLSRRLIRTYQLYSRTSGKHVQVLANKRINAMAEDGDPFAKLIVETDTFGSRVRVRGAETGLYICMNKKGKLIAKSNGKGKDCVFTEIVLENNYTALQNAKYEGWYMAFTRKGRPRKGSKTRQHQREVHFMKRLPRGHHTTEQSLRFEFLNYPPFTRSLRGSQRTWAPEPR
As to the kind of experiment: SPR analysis of peptide binding to immobilized FGF8b. The settings on record: for FGF8b binding activity (in words): SPR on the FGF8b-coated sensor chip; for FGF8b binding (Kd) / Kd: SPR, immobilized FGF8b, mean ± SEM. Also noted: purchased PeproTech. On the procedure:
A BIAcore X-100 apparatus (BIAcore Inc., Piscataway, NJ, USA) was used to set up the following experimental models. ARPCA and all the peptides mentioned in the present work were analyzed for their capacity to directly bind to immobilized FGF8b. To this purpose, FGF8b (20 μg/ml in 10 mM sodium acetate, pH 6.0) was allowed to react with a flow cell of a CM5 sensor chip that was previously activated with a mixture of 0.2 M N-ethyl-N′-(3-dimethylaminopropyl)-carbodiimide hydrochloride and 0.05 M N-hydroxysuccinimide (35 μl, flow rate 10 μl/min). After ligand immobilization, matrix neutralization was performed with 1.0 M ethanolamine (pH 8.5) (35 μl, flow rate 10 μl/min) and the activated/deactivated dextran was used as reference (control) system. Increasing concentrations of ARPCA (ranging between 8 μM and 2000 μM) were injected over the FGF8b-coated sensor chip and the response was recorded as a function of time tracking the SPR intensity change upon binding progression. Injection lasted for 4 min (flow rate 30 μl/min) to allow peptide association to immobilized FGF8b and was followed by 10 min of dissociation; each run was performed in HBS and the sensor chip was regenerated with 10 mM NaOH. […] Binding isotherm points were fitted with the Langmuir equation for monovalent binding. This allowed to evaluate the mass surface dissociation constant, Kd, and the scaling parameter that relates the SPR signal with the extent of binding, as the free parameters of the fitting. The errors on these parameters were assigned as a result of the fitting algorithm (95% confidence bounds). The best-fitting procedure was performed with the SigmaPlot 11.0 software package (Systat Software Inc.). Others FGFs were dissolved in 10mM sodium acetate at optimal pH, immobilized on CM5 sensorchips and tested for their capacity to bind ARPCA as described above.
Background: SPR reads the build-up and loss of mass on a sensor chip optically.

In another test the test system is S115 cells. As to the kind of experiment: S115 cell proliferation assay. The settings on record: 30 ng/ml FGF8b or 10 nM DHT, 48 h, viable cell counting. The format is cell-based, mouse. On the procedure:
as §2

Test [2] has as its system chick embryo chorioallantoic membrane (CAM). As to the kind of experiment: Chick embryo CAM assay with growth factor alginate implants. Type of test: in vivo. Particulars: 4.5 pmoles FGF8b/plug; ARPCA 80 or 140 pmoles, ARPVA 140 pmoles; vessels counted at day 14. On the procedure:
as §1

Regarding “Ac-ARPVA-NH2 [Cys4-replaced ARPCA pentapeptide mutant used as a negative control, reference compound]”, the “neovascular response elicited by DHT-pretreated S115 cells on the CAM” value in test [1] is listed as “no effect”. Moreover, the “effect on HUVEC proliferation in response to FGF8b (in words)” value in the test with HUVECs is listed as “no significant effect”. Moreover, in the test with FGF8b, the “FGF8b binding activity (in words)” value is on record as “activity was lost” and the “FGF8b binding (Kd)” value is “nb”. Further, the “mitogenic response of S115 cells to FGF8b or DHT” value in the test on S115 cells is reported as “ineffective”. Also, the “angiogenic response elicited by FGF8b in the CAM” value in test [2] is listed as “No inhibitory effect”.

Broadly, the Kd is the equilibrium constant for the complex coming apart. Higher therefore signals a looser complex. For the substance Ac-ARGCA-NH2 [Ac-ARGCA-NH2], at FGF8b, the “FGF8b binding activity (in words)” value is listed as “activity was lost” and the Kd is above 3 mM.

As to H-ARPCA-NH2 [H-ARPCA-NH2], at FGF8b, the “FGF8b binding activity (in words)” value is given as “dramatically reduced” and the equilibrium dissociation constant (Kd) was 2.9 ± 0.55 mM.

For the substance Ac-ARPMA-NH2 [Ac-ARPMA-NH2], on FGF8b, the “FGF8b binding activity (in words)” value is given as “activity was lost” and the Kd is above 3 mM.

Take Ac-ARPSA-NH2 [Ac-ARPSA-NH2]: at FGF8b, the “FGF8b binding activity (in words)” value is given as “activity was lost” and the “FGF8b binding (Kd)” value is on record as “nb”.

Regarding Ac-GRPCG-NH2 [Ac-GRPCG-NH2], on FGF8b, the “FGF8b binding activity (in words)” value was “dramatically reduced” and the dissociation constant Kd is above 3 mM.

Ac-APCRA-NH2 [Ac-APCRA-NH2] came in with an equilibrium dissociation constant (Kd) on FGF8b above 3 mM.

As to Ac-ARACA-NH2 [Ac-ARACA-NH2], on FGF8b, the “FGF8b binding activity (in words)” value is “activity was lost” and the dissociation constant Kd is above 3 mM.

On to Ac-ARPCG-NH2 [Ac-ARPCG-NH2], for which, at FGF8b, the “FGF8b binding activity (in words)” value is given as “dramatically reduced” and the Kd was 1.9 ± 0.2 mM.
